Results reported in ChEMBL document CHEMBL1201862, “PubChem BioAssay data set” (2004).
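Five compound concentrations were applied to cells in 96-well plates for 48 hours; endpoints were derived by simple linear interpolation of the resulting dose-response curve. GI50 = concentration required for 50% inhibition of growth.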 Calls of active or inactive are those of the source. Cut-off read from the data, not from the text of the source: active = GI50 up to about 1.1 µM and inactive = higher.

Columns and labels:
Experiment in all cases: NCI-60 cell line screen, 48 h
[1] = system: SF-539
[2] = system: MDA-MB-231
[3] = system: OVCAR-5
[4] = system: HOP-62
[5] = system: MDA-MB-435
[6] = system: UACC-62
[7] = system: CCRF-CEM
[8] = system: PC-3
[9] = system: TK-10
[10] = system: ACHN
[11] = system: DU-145
[12] = system: SN12C
[13] = system: HL-60
[14] = system: M14
[15] = system: SF-268
[16] = system: K562
[17] = system: NCI-H460
[18] = system: RPMI-8226
[19] = system: SR
[20] = system: HOP-92

Measured: GI50

CCOC(=O)C1(C/C=C/CBr)CCc2ccccc2C1=O (stereo unspecified)
inactive: [1] 18.1 µM | [2] 18.2 µM | [3] 29 µM | [4] 16.2 µM | [5] 14.3 µM | [6] 10.6 µM | [7] 5.25 µM | [8] 15.7 µM | [9] 10.4 µM | [10] 13.6 µM | [11] 14 µM | [12] 15.1 µM | [13] 6.3 µM | [14] 13.1 µM | [15] 18.5 µM

O=C(Nc1ccccc1F)c1cc2ccc(O)cc2o/c1=N\c1ccccc1F
inactive: [1] 3.33 µM | [3] 4.5 µM | [4] 2.19 µM | [5] 2.03 µM | [6] 2.37 µM | [7] 1.5 µM | [16] 2.15 µM | [8] 2.58 µM | [17] 2.25 µM | [10] 2.23 µM | [11] 1.95 µM | [13] 2.09 µM | [14] 2.55 µM | [18] 2.04 µM | [19] 1.87 µM | [15] 2.27 µM

CC(C)(C)/N=c1/n(C(C)(C)C)oc(=O)n1C(C)(C)C
inactive: [1] > 100 µM | [2] > 100 µM | [3] > 100 µM | [4] > 100 µM | [6] > 100 µM | [7] > 100 µM | [16] > 100 µM | [8] > 100 µM | [9] > 100 µM | [17] > 100 µM | [10] > 100 µM | [12] > 100 µM | [13] > 100 µM | [14] > 100 µM | [20] > 100 µM | [19] > 100 µM

COc1c(-c2nc3ccc(N4CCN(C)CC4)nc3[nH]2)cc(OC)c2[nH]c(COC(C)=O)nc12
inactive: [1] 14.9 µM | [2] 17.9 µM | [3] 55.7 µM | [4] 25 µM | [5] 26.5 µM | [6] 47.9 µM | [16] 1.52 µM | [9] 38.5 µM | [17] 31.6 µM | [10] 30.3 µM | [11] 29 µM | [12] 20.4 µM | [14] 19.5 µM | [20] > 100 µM | [19] 3.78 µM | [15] 61.8 µM

COC(=O)C1(O)C(c2ccccc2)NC2(C)CCCC21 (stereo unspecified)
inactive: [1] > 100 µM | [2] > 100 µM | [4] > 100 µM | [5] > 100 µM | [6] > 100 µM | [7] > 100 µM | [8] > 100 µM | [9] > 100 µM | [10] > 100 µM | [11] > 100 µM | [12] > 100 µM | [13] > 100 µM | [14] > 100 µM | [15] > 100 µM

CCOC(=O)/C(=C\NC(C)(C)C)c1nc2ccccc2o1
inactive: [1] 47.4 µM | [3] 60 µM | [4] > 100 µM | [5] 33.3 µM | [6] 18.4 µM | [7] 16.3 µM | [9] 27.2 µM | [17] 25.7 µM | [10] 27.6 µM | [11] 43.4 µM | [12] 50.1 µM | [13] 2.42 µM | [14] 48 µM | [20] 33.5 µM | [18] 22.2 µM | [19] 25.6 µM | [15] 37.8 µM

CC(C)(C)C1=C(Br)C(Br)(C(C)(C)C)OP1(=O)c1ccccc1 (stereo unspecified)
inactive: [1] > 100 µM | [3] > 100 µM | [4] > 100 µM | [5] > 100 µM | [6] > 100 µM | [16] > 100 µM | [8] > 100 µM | [9] > 100 µM | [17] > 100 µM | [10] > 100 µM | [11] > 100 µM | [12] > 100 µM | [13] > 100 µM | [14] > 100 µM | [20] > 100 µM | [19] > 100 µM | [15] > 100 µM

Cc1nn(C)c2c1C(=O)N(C)CC(=O)N2C
inactive: [1] > 100 µM | [3] > 100 µM | [4] > 100 µM | [5] > 100 µM | [6] > 100 µM | [7] > 100 µM | [16] > 100 µM | [8] > 100 µM | [9] > 100 µM | [17] > 100 µM | [10] > 100 µM | [11] > 100 µM | [12] > 100 µM | [13] > 100 µM | [14] > 100 µM | [20] > 100 µM | [18] > 100 µM | [19] > 100 µM | [15] > 100 µM

O=C(Nc1ccccc1)OC1OC(COC(=O)c2ccccc2)C(OC(=O)c2ccccc2)C1OS(=O)(=O)c1ccc([N+](=O)[O-])cc1 (stereo unspecified)
inactive: [1] > 100 µM | [3] > 100 µM | [4] > 100 µM | [5] > 100 µM | [6] > 100 µM | [7] > 100 µM | [16] > 100 µM | [8] > 100 µM | [9] > 100 µM | [17] > 100 µM | [10] > 100 µM | [11] > 100 µM | [12] > 100 µM | [13] 86.7 µM | [14] > 100 µM | [20] > 100 µM | [18] > 100 µM | [19] > 100 µM | [15] > 100 µM

O=C1C(Cl)=C(OCCCCl)C(=O)c2c(O)ccc(O)c21
active: [7] 0.0316 µM | [16] 0.401 µM | [13] 0.0715 µM | [19] 0.0836 µM
inactive: [1] 3.01 µM | [2] 2.31 µM | [3] 12.4 µM | [4] 8.99 µM | [6] 1.77 µM | [8] 3.99 µM | [9] 3.12 µM | [17] 6.61 µM | [10] 5.07 µM | [11] 9.73 µM | [12] 2.26 µM | [14] 1.43 µM | [20] 1.78 µM | [18] 1.37 µM | [15] 3.08 µM

CCCCCC(=O)OCC1(CO)C/C(=C/CC(C(C)C)C(C)C)C(=O)O1 (stereo unspecified)
inactive: [2] > 75 µM | [3] > 75 µM | [4] 38.7 µM | [5] 21.8 µM | [6] > 75 µM | [7] 16.1 µM | [8] 63.5 µM | [9] > 75 µM | [17] 24.8 µM | [10] 58.5 µM | [11] 59.6 µM | [12] 30.5 µM | [20] 27 µM | [15] > 75 µM

COc1cccc(C=C(C#N)C#N)c1OC
inactive: [1] > 100 µM | [3] > 100 µM | [4] > 100 µM | [6] > 100 µM | [7] 83.6 µM | [16] > 100 µM | [8] > 100 µM | [9] > 100 µM | [17] > 100 µM | [10] > 100 µM | [11] > 100 µM | [12] > 100 µM | [13] 85.9 µM | [14] > 100 µM | [20] > 100 µM | [18] 43.5 µM | [19] > 100 µM | [15] > 100 µM

CCOC(=O)c1cc(-c2ccc([N+](=O)[O-])cc2)c([N+](=O)[O-])[nH]1
inactive: [1] > 10 µM | [3] 5.47 µM | [5] 2.75 µM | [6] 3.03 µM | [7] 2.6 µM | [16] 3.48 µM | [9] 4.22 µM | [17] 2.26 µM | [10] 3.28 µM | [11] 2.96 µM | [12] > 10 µM | [14] > 10 µM | [20] 1.22 µM | [19] 1.76 µM | [15] 4.53 µM
active: [2] 0.37 µM

Cn1c(COC(=O)NC2CCCCC2)c(COC(=O)NC2CCCCC2)c2ccc3ccccc3c21
inactive: [1] 16 µM | [2] 69.5 µM | [3] 43.5 µM | [4] 35 µM | [5] 14.3 µM | [6] 48.6 µM | [7] 9.77 µM | [16] 51.2 µM | [8] 75.9 µM | [9] 33.7 µM | [17] 3.01 µM | [10] 17.2 µM | [14] 67.3 µM | [20] 28.1 µM | [18] 49.2 µM | [19] 2.96 µM | [15] 22.4 µM

COc1ccc(N2C(=O)/C(=C\c3cccc(Oc4ccccc4)c3)SC2c2ccccc2)cc1 (stereo unspecified)
inactive: [1] 24.5 µM | [2] > 100 µM | [3] > 100 µM | [4] 64.9 µM | [5] 30.5 µM | [6] 50.2 µM | [7] 5.3 µM | [16] 26.4 µM | [9] > 100 µM | [17] > 100 µM | [10] > 100 µM | [11] 73.8 µM | [12] > 100 µM | [13] 20.5 µM | [14] 49.7 µM | [20] 28.2 µM | [18] 21.2 µM | [19] 16.7 µM | [15] 33.2 µM

O=C1C=C(Nc2ccc(S(=O)(=O)Nc3nccs3)cc2)c2ccccc2C1=O
inactive: [1] 21.1 µM | [2] 26.5 µM | [3] 17.5 µM | [4] 15.4 µM | [5] 17.7 µM | [6] 24.5 µM | [7] 15.2 µM | [16] 12.1 µM | [8] 71.4 µM | [9] > 100 µM | [17] 34 µM | [10] 21 µM | [12] 24.6 µM | [13] 24.7 µM | [14] 21.9 µM | [20] 34.5 µM | [18] 37.3 µM | [19] 39.5 µM | [15] 27.1 µM
